The values that follow come from patent publication US20030144477A1, “Immunodominant acetylcholine receptor alpha subunit peptide: MHC complexes” (Corixa Corporation, priority 2001, published 2003).

pIC50: −log10 of the molar value. Peptide text beside a SMILES is read from it.

For one assay, the system named is HLA-DR2. The experiment in a line: IC50. The source says:
Table printed on a drawing sheet, FIGURE 4
The best fit of AChRα peptide sequences to published HLA-DR2 motifs is indicated along with the IC50 value.
First copying reader's note: Sequences are printed with horizontal offsets as a motif alignment; the offsets are not reproduced in the grid.

For assay [1], the system named is HLA-DR3 (a mix of DRB1*0301 and DRB3*0101). As to the kind of experiment: DELFIA competitive binding assay against biotinylated MBP 84-102, solubilized HLA-DR3. The conditions noted are these: for affinity for HLA-DR3: in words, from IC50; for pIC50: competitive binding to solubilized HLA-DR3, pH 5.5, vs biotinylated MBP 84-102. Set-up: species or system human. An excerpt: (§1) Important peptides in MG can be identified, for example, by screening a set of overlapping AChR peptides for binding to HLA-DR2 and HLA-DR3. The binding affinity of a peptide to the MHC compound can be measured using a variety of binding assays known to those of skill in the art. An example of suitable binding assay is the europium-based competitive binding assay (see, e.g., Tompkins et al. (1993) J. Immunol. Methods 163:209-216). Additionally, the capacity of the peptides of the invention to induce a T cell response can be determined using a variety of standard methods, known to those of skill in the art, as described below.
(§2) A set of 68 overlapping AChRα peptides (14 mer with 7 amino acids overlapping) was tested by dissociation-enhanced lenthanide fluoroimmunoassay (“DELFIA”) competitive binding assay for their relative affinity to […]. […] The sequence of the AChRα subunit is shown with each of the transmembrane regions (M1-M4) indicated by a shaded box.) Ten-fold dilutions (preferably 1-100,000 nM) of unlabeled AChRα peptides were co-incubated at pH 5.5 with the biotinylated myelin basic protein peptide MBP 84-102, and the IC50 of binding to solubilized HLA-DR2 (a mix of DRB1*1501 and DRB5*0101) or HLA-DR3 (a mix of DRB1*0301 and DRB3*0101) was measured. Measurement of the IC50 is preferably done by europium-streptavidin dissociation-enhanced lenthanide fluoroimmunoassay (DELFIA) and the IC50 typically calculated by four parameter fit analysis with the software program SOFTmax Pro. FIG. 2 lists the IC50s of each AChRα peptide binding to HLA-DR2 and HLA-DR3.

In assay [2] the target is solubilized HLA-DR2 (a mix of DRB1*1501 and DRB5*0101) (Homo sapiens, UniProt P01903+P01911+Q30154). As to the kind of experiment: DELFIA competitive binding assay against biotinylated MBP 84-102, solubilized HLA-DR2. The conditions noted are these: for relative affinity for HLA-DR2: in words, from IC50 / 1/IC50 plot.
Source text: as §1
A set of 68 overlapping AChRα peptides (14 mer with 7 amino acids overlapping) was tested by dissociation-enhanced lenthanide fluoroimmunoassay (“DELFIA”) competitive binding assay for their relative affinity to HLA-DR4. […] Measurement of the IC50 is preferably done by europium-streptavidin dissociation-enhanced lenthanide fluoroimmunoassay (DELFIA) and the IC50 typically calculated by four parameter fit analysis with the software program SOFTmax Pro.

The target in another assay is HLA-DR1. As to the kind of experiment: DELFIA europium-based competitive binding assay, HLA-DR1. The settings on record: competitive binding to HLA-DR1. Set-up: species or system human.
For assay [3], the target named is solubilized DR4 (HLA-DR4). As to the kind of experiment: europium-based competitive binding assay using solubilized DR4. The settings on record: competitive binding to solubilized DR4. Set-up: species or system human. Here is the method:
as §2
In addition, the relative affinity for HLA-DR4 of a set of sixty nine synthetic overlapping peptides of AchRα (14 mer with 7 amino acids overlapping) was measured by a europium-based competitive binding assay using solubilized DR4. The concentration of AchR peptides required to inhibit 50% binding of a known DR4 binding peptide was calculated for each peptide. High affinity peptides were identified based on their IC50 value.

Assay [4] relates to PBMCs from MG patients and normal healthy individuals. The experiment in a line: modified ELISPOT assay of T cell reactivity (γ-IFN spots, reactive index). The assay is classed as cell-based, human. The settings on record: reactive index above two; HLA type ignored; 9 MG patients vs 30 normals. The source says:
In addition, a modified ELISPOT assay, termed the Clonal Expansion ELISA-Spot (or CEE-SPOT) assay can also be used in the context of the present invention. In the CEE-SPOT assay, PBMCs are stimulated with antigen for an appropriate amount of time (e.g., 7 days) to promote proliferation of the antigen-specific T cells prior to re-stimulation and lymphokine capture (e.g., on day 10). […] The production of lymphokines can be measured using this assay, including, e.g., IL-2, IL-4, etc. Typically, lymphokine is captured on a filter, preferably a PVDF filter to improve the background and intensity of the spots. Spot counting is typically carried out using videocamera imaging and computer analysis. This type of assay can also be used to identify epitopes derived from natural processing, by first stimulating T cells with the whole protein and then re-stimulating them with peptides derived from the protein.
T cell reactivity of the above peptides to patient and normal healthy individual PBMCs was measured by modified ELISPOT assay. PBMCs obtained from 30 normals and 9 MG patients were included in this study. The above peptides along with TT/PPD as positive control and media as negative control were tested for T cell reactivity. […] Antigen specific cell stimulation profile for each antigen was measured by the secretion of γ-IFN detected as spots using a pair of anti-γIFN antibodies set. […]

A word on the pIC50: it is −log10 of the IC50, conventionally taken in molar units. “TGHITWTPPAIFKS [AChRα 113-126, AChRα subunit peptide fragment, residues 113-126] [listing 1 of 2 here]” gave a pIC50 in the assay on HLA-DR2 of 5.55.
On the same count and under the same terms, then “V E V T V G L Q L I Q L I N (VEVTVGLQLIQLIN) [AChRα 27-42]”, with 5.04; and “V I I P C L L F S F L T G L (VIIPCLLFSFLTGL) [AChRα 218-231]”, with 5.17.
On the same count and under the same terms, with “I P N I M F F S T M K R P S R E K Q (IPNIMFFSTMKRPSREKQ) [AChRα 320-337]” the figure was 5.18.
In the case of MKLGTWTYDGSVVAINPESD [AChRα 144-163], in assay [1], the “affinity for HLA-DR3” value is “high affinity”.
“NWVRKVFIDTIPNIMFFS [AChRα 310-327, AChRα subunit peptide fragment, residues 310-327]”: the “relative affinity for HLA-DR2” value in assay [2] is listed as “high relative affinity”.
For DTPYLDITYHFVMQRLPL [AChRα 195-212], the “affinity for HLA-DR3” value in assay [1] was “high affinity”.
Consider `CC[C@H](C)[C@H](NC(=O)[C@H](CCC(N)=O)NC(=O)[C@H](CC(N)=O)NC(=O)[C@@H](NC(=O)[C@H](CCC(=O)O)NC(=O)[C@H](CC(=O)O)NC(=O)[C@@H](NC(=O)[C@H](CC(N)=O)NC(=O)[C@@H](NC(=O)[C@H](CC(C)C)NC(=O)[C@H](CCC(N)=O)NC(=O)[C@@H](NC(=O)[C@H](CC(C)C)NC(=O)[C@@H](N)CCC(N)=O)[C@@H](C)CC)[C@@H](C)CC)C(C)C)C(C)C)C(=O)O` [AChRα 36-49] (H-QLIQLINVDEVNQI-OH; N-terminus and C-terminus assumed), for which the pIC50 on HLA-DR1 was 4.95; in assay [2] (competitive binding to solubilized HLA-DR2, pH 5.5, vs biotinylated MBP 84-102) it was 4.96; in assay [1], 5.14; in assay [3] it was 5.44. The “affinity for HLA-DR3” value in assay [1] is reported as “high affinity”. In addition, the “per cent of patients that show reactivity compared with per cent of normal healthy individuals” value in assay [4] is “approximately twice”.
For the compound “TGHITWTPPAIFKS [AChRα 113-126, AChRα subunit peptide fragment, residues 113-126] [listing 2 of 2 here]”, in assay [2], the “relative affinity for HLA-DR2” value is on record as “high relative affinity”.
For the compound `CC(C)C[C@H](NC(=O)[C@H](CCCCN)NC(=O)[C@H](C)NC(=O)[C@@H](NC(=O)[C@@H](N)CC(C)C)C(C)C)C(=O)N[C@@H](Cc1ccccc1)C(=O)N[C@@H](CCCCN)C(=O)N[C@@H](CC(=O)O)C(=O)N[C@@H](Cc1ccc(O)cc1)C(=O)N[C@@H](CO)C(=O)N[C@@H](CO)C(=O)N[C@H](C(=O)N[C@H](C(=O)N[C@@H](CCCNC(=N)N)C(=O)N1CCC[C@H]1C(=O)N[C@H](C(=O)O)C(C)C)C(C)C)C(C)C` [AChRα 7-22], the negative-log IC50 (pIC50) at HLA-DR1 is < 4.00. In addition, in assay [1], the pIC50 is 5.21 and the “affinity for HLA-DR3” value is on record as “high affinity”.
Consider `CC[C@H](C)[C@H](NC(=O)[C@H](Cc1ccccc1)NC(=O)[C@H](Cc1ccc(O)cc1)NC(=O)[C@H](CC(C)C)NC(=O)[C@@H]1CCCN1C(=O)[C@H](CC(C)C)NC(=O)[C@H](CCCNC(=N)N)NC(=O)[C@H](CCC(N)=O)NC(=O)[C@H](CCSC)NC(=O)[C@@H](NC(=O)[C@H](Cc1ccccc1)NC(=O)[C@@H](N)Cc1c[nH]cn1)C(C)C)C(=O)N[C@H](C(=O)N[C@@H](CC(N)=O)C(=O)O)C(C)C` [AChRα 204-217], for which the figures for the pIC50 (at HLA-DR1; in assay [1]) were 5.76 and 4.15, respectively.
